US20250041277A1, “METHODS AND DOSING REGIMENS COMPRISING A CDK2 INHIBITOR AND A CDK4 INHIBITOR FOR TREATING CANCER” (PFIZER INC., priority 2021, published 2025)
Marks after values point to notes of the source that are not given here.

Key:
MCF7 breast cancer model = assay: In vivo efficacy, HR+/HER2− MCF7 breast cancer model (Example 4); set-up: species or system NSG mice; details: MCF7, Day 29; PO BID: PF-07104091 120 mpk, PF-07220060 60 mpk, PF-06873600 30 mpk, palbociclib 10 mpk; fulvestrant 10 mpk SC
Protocol: (§1) Female NSG mice (Jackson Lab) were subcutaneously implanted with fragment (27 mm^3 to 64 mm^3 size) into the dorsal region. All mice for HCC1428, MCF7 and ST941 PBR studies were supplemented with 8.5 μg/mL estradiol water (β-Estradiol Sigma-Aldrich, cat #E2758-5G) and gave ad libitum till end of study. For the in vivo efficacy studies, tumor volume and body weights were measured twice a week. Tumor volume was calculated using the [(Length×Width×Width)/2)] formula. TGI was calculated as 100*(1−ΔT/ΔC). The ΔC (ΔT) was obtained by subtracting the mean tumor burden in the vehicle (treated) group on the first day of treatment (Day 0) from the mean tumor burden in vehicle (treated) group on the assessment day. Statistical analysis was performed using ANCOVA when the mean tumor volume in vehicle treated mice reached tumor cutoff size.
(§2) The MCF7 model was established by implanting donor tumor fragments into recipient mice. To establish the MCF7 donor mice, tumor cells (5×10^6 cell/mouse with 50% Cultrex® Basement Membrane Matrix) were subcutaneously implanted in female NSG mice. Once reaching a range of 700 to 800 mm^3, donor tumors were subsequently transplanted into secondary recipient mice for a study expansion. […] PF-07104091 (lot 022), PF-07220060 (lot CPo126812-01-SY-5700-01), PF-06873600 (lot 022) and PD-0332991 (lot GR08498) were administered (PO) BID (7 hr apart) while fulvestrant (lot 20160224-2) at 10 mg/kg, SC twice in the first week, then weekly afterwards. All mice received treatment continuously until Day 29. TGI was assessed on Day 29 post first dose

ST941 PBR PDX model [1] = assay: In vivo efficacy, palbociclib-resistant ST941 PBR PDX model (Example 4); set-up: species or system NSG mice; details: ST941PBR, Day 28, PO BID: PF-07104091 120 mpk, PF-07220060 60 mpk, PF-06873600 30 mpk, palbociclib 10 mpk, fulvestrant 10 mpk SC
Protocol: as §1
(§3) We established model in house by continuous treatment of the ST941 PBR tumor bearing mice with PD-0332991 at 50 mg/kg, PO QD plus fulvestrant at 10 mg/kg, SC twice in the first week, then weekly thereafter. To propagate donors for the TGI study, tumors were transplanted to recipient mice. One week after the re-implantation, the recipient mice received continuous treatment with palbociclib plus fulvestrant (dosing schedule described above). After 1 to 2 serial in vivo propagation with the same treatment regimen, the resistant tumors in the range of 700 to 800 mm^3 were re-implanted for a study expansion. The remaining tumor fragments were viably frozen for future use.
The live donor mice were established by implanting ST941 PBR (p13) tumor fragments. Once reaching a range of 700 to 800 mm^3, the donor tumors were subsequently transplanted into secondary recipient mice for a study expansion. To maintain the resistant clones, the ST941 PBR tumor bearing mice were treated with PD-0332991 at 50 mg/kg, PO. QD plus fulvestrant at 10 mg/kg, SC twice in the first week, then weekly afterwards for 10 weeks. The treatment was initiated one week after the implant until day of randomization for study enrollment. […] PF-07104091 (lot 021), PF-07220060 (lot CPo126812-01-SY-5700-01), PF-06873600 (lot 022) and PD-0332991 (lot GR08498) were administered (PO) BID (7 hr apart) while fulvestrant (lot 20160224-2) at 10 mg/kg, SC twice in the first week, then weekly afterwards. All mice received treatment continuously until Day 28. TGI was assessed on Day 28 post first dose.

[2] = test system: HCC1428 breast cancer model; assay: In vivo efficacy, HR+/HER2− HCC1428 breast cancer model (Example 4); set-up: species or system NSG mice; details: HCC1428, Day 42; PO BID: PF-07104091 120 mpk, PF-07220060 60 mpk, PF-06873600 30 mpk, palbociclib 10 mpk; fulvestrant 10 mpk SC
Protocol: as §1
as §2, with “The HCC1428” for “The MCF7”, “implanting passage 1” for “implanting donor”, “the HCC1428” for “the MCF7”, “Day 42.” for “Day 29.”, “Day 42” for “Day 29”, “first dose.” for “first dose”

ST941 PBR PDX model [3] = assay: In vivo efficacy, palbociclib-resistant ST941 PBR PDX model (Example 3); set-up: species or system NSG mice; details: ST941PBR, Day 28; PO BID: PF-07104091 150 mpk, PF-07220060 60 mpk, palbociclib 10 mpk; fulvestrant 10 mpk SC 2x week 1 then weekly
Protocol: as §1, with “T47D, HCC1428” for “HCC1428, MCF7”
as §3
The live donor mice were established by implanting ST941 PBR (p11) tumor fragments. Once reaching a range of 700 to 800 mm^3, the donor tumors were subsequently transplanted into secondary recipient mice for a study expansion. To maintain the resistant clones, the ST941 PBR tumor bearing mice were treated with PD-0332991 at 50 mg/kg, PO. QD plus fulvestrant at 10 mg/kg, SC twice in the first week, then weekly afterwards for 10 weeks. The treatment was initiated one week after the implant until day of randomization for study enrollment. […] TGI was assessed on Day 28 post first dose.

[4] = test system: NCI-H1792 lung adenocarcinoma (LUAD) cells; assay: Spheroid growth inhibition (SGI) assay, NCI-H1792; assay type: cell-based; details: NCI-H1792 spheroids; 30 nM palbociclib, 300 nM PF-07220060, 300 nM PF-07104091; 14 days
Protocol: (§4) NCI-H1792 and NCI-H23 lung adenocarcinoma (LUAD) cells lines were obtained from ATCC and maintained in RPMI 1640 medium supplemented with 10% fetal bovine serum and penicillin-streptomycin as per ATCC guidelines. Cells were maintained in humidified incubator at 37° C. with 5% CO2.
(§5) Spheroid assays were performed in 96 well ultralow attachment plates (ULA-96U) from Nexcelom & Thermo Fisher Scientific. […] To aid spheroid formation, dispensed cells were centrifuged at 220×g for 6 minutes in the ultralow attachment plates and allowed to form compact spheroids for 4 days prior to the initiation of treatment. […] DMSO (0.01%) was used as the vehicle control. DMSO and all compounds were diluted in cell medium. Medium and compounds were replenished twice per week, with 3 and 4-day intervals. Replenishment was executed by aspirating 150 μL of medium per well without disturbing the spheroid and then adding the same volume of premixed medium/compound solution to spheroids. Spheroid diameter was quantified immediately following each medium change twice a week (on every 3rd or 4th day) throughout the duration of the assay.
(§6) Average diameters of tumor spheroids were plotted in GraphPad Prism 8 and the AUC calculated. AUC baseline was determined by the average tumor spheroid diameter at Day 0 in the vehicle (DMSO) controls. Spheroid growth inhibition, or SGI, was calculated as follows: SGI=(1−AUC treatment/AUC DMSO)×100%. SGI for all treatment arms was derived at the timepoint when the vehicle (DMSO) treated spheroids reach their maximal diameter (usually close to 1 mm but this can differ among cell lines); this corresponds to the last time point taken for the vehicle (DMSO) treated spheroids. SEM was calculated based on n=10 to 12 wells per test group.
(§7) Growth of lung adenocarcinoma multicellular tumor spheroids (MCTS) was monitored over time to assess: (i) amplitude of response (SGI) and (ii) duration of response to the CDK4 inhibitor PF-07220060 as a single agent, and in combination with the CDK2 inhibitor PF-07104091.

[5] = test system: HCC1428 breast cancer model; assay: In vivo efficacy, HR+/HER2− HCC1428 breast cancer model (Example 3); set-up: species or system NSG mice; details: HCC1428, Day 42; PO BID: PF-07104091 150 mpk, PF-07220060 60 mpk, palbociclib 10 mpk
Protocol: as §1, with “T47D, HCC1428” for “HCC1428, MCF7”
(§8) The HCC1428 model was established by implanting passage 4 tumor fragments into recipient mice. To establish the HCC1428 donor mice, tumor cells (5×10^6 cell/mouse with 50% Cultrex® Basement Membrane Matrix) were subcutaneously implanted in female NSG mice. Once reaching a range of 700 to 800 mm^3, donor tumors were subsequently transplanted into secondary recipient mice for a study expansion. […] PF-07104091 (lot 016), PF-07220060 (lot 019) and PD-0332991 (lot GR08498) were administered (PO.) BID (7 hr apart). All mice received treatment continuously until Day 42. TGI was assessed on Day 42 post first dose.

[6] = test system: NCI-H23 lung adenocarcinoma (LUAD) cells; assay: Spheroid growth inhibition (SGI) assay, NCI-H23; assay type: cell-based; details: NCI-H23 spheroids; 30 nM palbociclib, 300 nM PF-07220060, 300 nM PF-07104091; 14 days
Protocol: as §4, §5, §6, §7

T47D breast cancer model = assay: In vivo efficacy, HR+/HER2− T47D breast cancer model (Example 3); set-up: species or system NSG mice; details: Day 41, PO BID: PF-07104091 150 mpk, PF-07220060 60 mpk, palbociclib 10 mpk
Protocol: as §1, with “T47D, HCC1428” for “HCC1428, MCF7”
as §8, with “The T47D” for “The HCC1428”, “passage 3” for “passage 4”, “the T47D” for “the HCC1428”, “Day 41.” for “Day 42.”, “Day 41” for “Day 42”

Row | SMILES | TGI % (MCF7 breast cancer model) [%] | TGI % (ST941 PBR PDX model [1]) | TGI % (ST941 PBR PDX model [1]; listed as PF-0873600) [%] | TGI % [2] [%] | TGI % (ST941 PBR PDX model [3]) [%] | SGI (%) [4] [%] | TGI % [5] | SGI (%) [6] [%] | TGI % (T47D breast cancer model)
1 | C[C@@]1(O)CCC[C@H]1n1c(=O)c(C(F)F)cc2cnc(NC3CCN(S(C)(=O)=O)CC3)nc21 [PF-06873600, reference compound] | 70 | 47^* % | 47 | 97 | – | – | – | – | –
2 | CC(=O)c1c(C)c2cnc(Nc3ccc(N4CCNCC4)cn3)nc2n(C2CCCC2)c1=O [palbociclib, reference compound] | – | – | – | – | 15 | 54 | 44^* % | 9 | 72^* %
